Biological target: Procathepsin L (Homo sapiens, UniProt P07711)
Assay: FRET-based enzymatic assay

Chain of Procathepsin L (P07711 whole entry): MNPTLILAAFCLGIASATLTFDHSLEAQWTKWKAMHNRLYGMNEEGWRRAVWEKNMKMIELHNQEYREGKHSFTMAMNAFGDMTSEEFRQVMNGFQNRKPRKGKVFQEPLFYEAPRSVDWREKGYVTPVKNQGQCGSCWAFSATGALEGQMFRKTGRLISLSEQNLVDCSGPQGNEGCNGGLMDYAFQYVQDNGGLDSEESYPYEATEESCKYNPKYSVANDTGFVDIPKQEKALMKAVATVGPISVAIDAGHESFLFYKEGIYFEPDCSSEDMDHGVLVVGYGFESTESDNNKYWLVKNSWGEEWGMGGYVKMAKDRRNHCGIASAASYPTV

SMILES | IC50
CC(C)C[C@H](NC(=O)OCc1ccccc1)C(=O)N[C@@H](CC1CCNC1=O)C(O)S(=O)(=O)O (stereo not given in full) [GC376] | 0.99 nM
COc1cccc2[nH]c(C(=O)N[C@@H](CC(C)C)C(=O)N[C@@H](C[C@@H]3CCNC3=O)C(=O)CO)cc12 [WO2005113580-Ex-02] | 146 nM
CC(OC(C)(C)C)[C@H](NC(=O)OCc1ccccc1)C(=O)N[C@@H](CC1CCCCC1)C(=O)N[C@H](C=O)C[C@@H]1CCNC1=O (stereo not given in full) [jm5b01461, Compound 45] | 1.2 nM

Biological target: Replicase polyprotein 1ab (Severe acute respiratory syndrome coronavirus 2, UniProt P0DTD1)
Assay: FRET-based enzymatic assay

SMILES | IC50
CCCCC1CCC(OC(=O)N[C@@H](CC(C)C)C(=O)N[C@H](C=O)C[C@@H]2CCNC2=O)CC1 (stereo not given in full) [Advanced SARS-CoV-2 Inhibitor 6e] | 10 nM
C=CC(=O)N(c1ccc(-c2ccccc2)cc1)C(C(=O)N[C@@H](C)c1ccccc1)c1cccnc1 (stereo not given in full) [Jun9-51-3] | > 20000 nM
O=C(NC1CCCC1)C(c1cccnc1)N(C(=O)CCl)c1ccc(-c2ccccc2)cc1 (stereo not given) [Jun9-55-1] | 300 nM
O=C(NC1CCCCC1)C(c1cccnc1)N(C(=O)CCl)c1ccc(-c2ccccc2)cc1 (stereo not given) [Jun9-55-2] | 330 nM
O=C(NC1CC1)C(c1cccnc1)N(C(=O)CCl)c1ccc(-c2ccccc2)cc1 (stereo not given) [Jun9-57-2] | 220 nM
C[C@H](NC(=O)[C@@H](c1cnccn1)N(C(=O)CCl)c1ccc(-c2ccccc2)cc1)c1ccccc1 [Jun9-57-3R] | 50 nM
C[C@H](NC(=O)C(c1cnccn1)N(C(=O)CCl)c1ccc(-c2ccccc2)cc1)c1ccccc1 (stereo not given in full) [Jun9-59-1] | 120 nM
C[C@H](NC(=O)C(c1cccnc1)N(C(=O)CN=[N+]=[N-])c1ccc(-c2ccccc2)cc1)c1ccccc1 (stereo not given in full) [Jun9-61-1] | > 20000 nM
C[C@H](NC(=O)C(c1cccnc1)N(C(=O)CF)c1ccc(-c2ccccc2)cc1)c1ccccc1 (stereo not given in full) [Jun9-61-4] | > 20000 nM
CCOC(=O)/C=C/C(=O)N(c1ccc(-c2ccccc2)cc1)C(C(=O)N[C@@H](C)c1ccccc1)c1cccnc1 (stereo not given in full) [Jun9-72-3] | > 20000 nM
C[C@H](NC(=O)C(c1cccnc1)N(C(=O)C(Cl)(Cl)Cl)c1ccc(-c2ccccc2)cc1)c1ccccc1 (stereo not given in full) [Jun9-72-4] | > 20000 nM
C[C@H](NC(=O)C(c1cccnc1)N(C(=O)C(C)(Cl)Cl)c1ccc(-c2ccccc2)cc1)c1ccccc1 (stereo not given in full) [Jun9-76-4] | > 20000 nM
C[C@H](Cl)C(=O)N(c1ccc(-c2ccccc2)cc1)C(C(=O)N[C@@H](C)c1ccccc1)c1cccnc1 (stereo not given in full) [Jun9-77-1] | > 20000 nM
C[C@H](NC(=O)C(c1cccnc1)N(C(=O)C(F)(F)Cl)c1ccc(-c2ccccc2)cc1)c1ccccc1 (stereo not given in full) [Jun9-77-2] | > 20000 nM
C[C@H](NC(=O)[C@@H](c1cccnc1)N(C(=O)C(Br)Br)c1ccc(-c2ccccc2)cc1)c1ccc(Br)cc1 [Jun9-89-2R] | 80 nM
C=CC(=O)N(c1ccc(-c2ccccc2)cc1)C(C(=O)NCc1ccccc1)c1cccnc1 (stereo not given) [Jun10-15-2] | > 20000 nM
C[C@H](NC(=O)C(c1cccnc1)N(C(=O)/C=C/CN(C)C)c1ccc(-c2ccccc2)cc1)c1ccccc1 (stereo not given in full) [Jun10-31-4] | > 20000 nM
